Measured values from patent US20260176289A1, “SMALL MOLECULE INHIBITORS OF KRAS PROTEINS” (Merck Sharp & Dohme LLC, priority 2022, published 2026).
Read-outs that look alike come from different tables or passages of the source.

Assays:
AsPC-1 cells = test: Cellular phospho-ERK assay, AsPC-1 cells (homozygous KRAS-G12D); assay type: cell-based; conditions: Homo sapiens, ASPC1, 2 h, read-out: AsPC1 pERK IC50
Method in brief: (§1)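 ERK phosphorylation relative to total ERK is the endpoint, detected by AlphaScreen-based SureFire multiplex following a 2-hour treatment at 37 °C. Compounds are titrated 1:3 over ten points from 30 μM.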

KRAS-G12V = KRAS-G12V (Homo sapiens, UniProt P01116, G12V); test: SOS-catalyzed nucleotide exchange assay (Procedure A, TR-FRET), KRAS-G12V; assay type: biochemical; conditions: nucleotide exchange, read-out: KRAS G12V GNE IC50
Method in brief: (§2)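 TR-FRET 520/495 nm ratio read after SOS-driven exchange of Bodipy-GDP for unlabeled GTP (3 mM) on biotinylated RAS bound to Tb-streptavidin. There was a 60 min compound preincubation, RT. Final RAS/SOS and reaction times: G12C 3 nM/40 nM; WT 1 nM/40 nM; NRAS 1.25 nM/40 nM, each 60 min. G12V was 1.25 nM/160 nM, 90 min.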

KRAS-WT = KRAS-WT (Homo sapiens, UniProt P01116); test: SOS-catalyzed nucleotide exchange assay (Procedure A, TR-FRET), KRAS-WT; assay type: biochemical; conditions: nucleotide exchange, read-out: KRAS WT GNE IC50
Method in brief: as §2

KRAS-G13D = KRAS-G13D (Homo sapiens, UniProt P01116, G13D); test: SOS-catalyzed nucleotide exchange assay (Procedure A, TR-FRET), KRAS-G13D; assay type: biochemical; conditions: nucleotide exchange, Procedure A; read-out: KRAS G13D GNE IC50
Excerpt: (§3) Procedure for SOS-Catalyzed Nucleotide Exchange Assay for KRAS-WT, G12C/D/V, G13D, HRAS, and NRAS (Procedure A)
(§4) Recombinant KRAS-G12C protein used in this assay has an additional triple mutation (C51S/C80L/C118S). Whereas KRAS-WT, G12D/V, G13D, HRAS and NRAS are in context of their WT protein sequence background. Specifically, the SOS-catalyzed nucleotide exchange assay utilizes a preformed TR-FRET complex containing a specific biotinylated RAS protein (KRAS-WT, G12C/V/D, G13D, HRAS, NRAS; described above) with Bodipy-GDP, and Terbium-streptavidin. Compounds are preincubated with this complex for 60 minutes. Subsequently, recombinant human SOS protein and unlabeled GTP are added to initiate the exchange reaction. Small molecule inhibitors stabilize the Bodipy-GDP complex whereas the untreated protein rapidly exchanges Bodipy-GDP for unlabeled GTP resulting in reduced TR-FRET signal.
(§5) To assemble the preformed TR-FRET complexes, each biotinylated RAS protein is diluted to 2 μM in an EDTA Buffer (20 mM HEPES pH 7.5, 50 mM sodium chloride, 10 mM EDTA, and 0.01% Tween) and incubated at room temperature for one hour. This mixture is then further diluted to 90 nM in an Assay Buffer (20 mM HEPES pH 7.5, 150 mM sodium chloride, 10 mM magnesium chloride, and 0.005% Tween) containing 15 nM of Terbium-Streptavidin (Invitrogen, catalog #PV3577) and 900 nM of Bodipy-GDP (Invitrogen, catalog #G22360) and incubated at room temperature for six hours. It should be noted that this preformed TR-FRET complex for each of the RAS protein were made ahead of time, aliquoted and stored at −80° C. until the day of the experiment.
(§6) Each test compound (10 mM stock in DMSO) is diluted in DMSO to make a final-10-point, 3-fold dilution and is acoustically dispensed into a 384-well assay plate (Corning, catalog #3820) using an Echo 550 (Labcyte). Each well of the assay plate receives 3 μL of a specific 3×RAS preformed TR-FRET complex and 3 μL of Assay Buffer and is incubated at room temperature for 60 minutes (preincubation time). Each well then receives 3 μL of 3×recombinant human SOS protein and GTP (Sigma, G8877) in Assay Buffer and is incubated at room temperature for 30 minutes (G13D), 60 minutes (KRAS WT/G12C/D, H/NRAS) or 90 minutes for G12V. The final reaction in each well of 9 μL consists of 3 mM GTP, specific Ras and SOS proteins in the following concentrations: KRAS-G12C/SOS=3 nM/40 nM, KRAS-WT and G12D/SOS=1 nM/40 nM, KRAS-G12V/SOS=1.25 nM/160 nM. KRAS-G13D/SOS=1.25 nM/0 nM, HRAS and NRAS=1.25 nM/40 nM.
(§7) The time-resolved fluorescence resonance energy transfer (TR-FRET) signal is measured on an Envision (PerkinElmer) plate reader: Excitation filter=340 nm; emission 1=495 nm; emission2=520 nm; dichroic mirror=D400/D505; delay time=[…]. The signal of each well is determined as the ratio of the emission at 520 nm to that at 495 nm. Percent effect of each well is determined after normalization to control wells containing DMSO (no effect) or a saturating concentration of inhibitor (max effect). The apparent effect as a function of compound concentration is fit to a four-parameter logistic equation.

KRAS-G12D = KRAS-G12D (Homo sapiens, UniProt P01116, G12D); test: SOS-catalyzed nucleotide exchange assay (Procedure A, TR-FRET), KRAS-G12D; assay type: biochemical; conditions: nucleotide exchange, read-out: KRAS G12D GNE IC50
Method in brief: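 Signal ratio (520/495 nm, excitation 340 nm) reports Bodipy-GDP retention on biotinylated RAS after SOS-catalyzed exchange with 3 mM GTP. SOS was 40 nM, except 160 nM for G12V. Room-temperature exchange lasted 60 min (90 min for G12V), following a 60 min compound preincubation.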

SW620 cells = test: Cellular phospho-ERK assay, SW620 cells (homozygous KRAS-G12V); assay type: cell-based; conditions: Homo sapiens, read-out: SW620 pERK IC50
Method in brief: as §1

[1] = target: KRAS-G12C (C51S/C80L/C118S) (Homo sapiens, UniProt P01116, C118S/C51S/C80L/G12C); test: SOS-catalyzed nucleotide exchange assay (Procedure A, TR-FRET), KRAS-G12C; assay type: biochemical; conditions: nucleotide exchange, Procedure A; read-out: KRAS G12C GNE IC50
Excerpt: as §3, §4, §5, §6, §7

MKN-1 cells = test: Cellular phospho-ERK assay, MKN-1 cells (amplified wild-type KRAS); assay type: cell-based; conditions: Homo sapiens, read-out: MKN1 pERK IC50
Method in brief: as §1

Sequence of KRAS-G12V (P01116 with tags, fused parts or gaps isoform P01116-2 G12V): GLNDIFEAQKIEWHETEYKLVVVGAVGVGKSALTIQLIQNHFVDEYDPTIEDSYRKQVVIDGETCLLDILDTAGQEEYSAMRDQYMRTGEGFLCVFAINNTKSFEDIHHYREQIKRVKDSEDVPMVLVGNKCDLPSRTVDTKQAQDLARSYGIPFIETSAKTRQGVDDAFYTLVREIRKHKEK
Sequence of KRAS-G12C (C51S/C80L/C118S) (P01116 with tags, fused parts or gaps isoform P01116-2 G12C/C51S/C80L/C118S): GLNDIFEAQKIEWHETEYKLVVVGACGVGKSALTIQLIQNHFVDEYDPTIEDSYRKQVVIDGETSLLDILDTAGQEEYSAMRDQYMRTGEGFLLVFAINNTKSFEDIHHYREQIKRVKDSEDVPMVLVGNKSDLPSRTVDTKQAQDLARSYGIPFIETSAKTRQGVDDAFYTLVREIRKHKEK
Sequence of KRAS-G12D (P01116 with tags, fused parts or gaps isoform P01116-2 G12D): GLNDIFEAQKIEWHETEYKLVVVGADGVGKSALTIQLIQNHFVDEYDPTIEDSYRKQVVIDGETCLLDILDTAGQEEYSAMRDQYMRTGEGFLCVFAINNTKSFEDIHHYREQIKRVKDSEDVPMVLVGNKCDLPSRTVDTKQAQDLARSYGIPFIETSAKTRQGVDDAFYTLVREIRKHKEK
Sequence of KRAS-WT (P01116 with tags, fused parts or gaps isoform P01116-2): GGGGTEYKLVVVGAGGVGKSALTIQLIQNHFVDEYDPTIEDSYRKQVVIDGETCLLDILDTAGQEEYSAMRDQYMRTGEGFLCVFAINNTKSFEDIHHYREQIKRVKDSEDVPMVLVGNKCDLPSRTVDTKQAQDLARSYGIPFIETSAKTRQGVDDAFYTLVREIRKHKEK
Sequence of KRAS-G13D (P01116 with tags, fused parts or gaps isoform P01116-2 G13D): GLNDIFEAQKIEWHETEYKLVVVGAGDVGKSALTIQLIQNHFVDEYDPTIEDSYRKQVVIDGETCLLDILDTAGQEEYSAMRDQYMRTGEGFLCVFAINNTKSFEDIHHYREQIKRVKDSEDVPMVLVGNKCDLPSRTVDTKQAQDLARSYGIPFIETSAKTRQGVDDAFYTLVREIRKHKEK

SMILES	IC50 (AsPC-1 cells; KRAS-G12D, 2 hours)	IC50 (KRAS-G12V)	IC50 (KRAS-WT)	IC50 (KRAS-G13D)	IC50 (KRAS-G12D)	IC50 [1]	IC50 (AsPC-1 cells; 2 hours compound incubation)	IC50 (SW620 cells; SW-620, 2 hours compound incubation)	IC50 (MKN-1 cells; 2 hours compound incubation)	IC50 (SW620 cells; SW-620, KRAS-G12V, 2 hours)	IC50 (MKN-1 cells; amplified wild-type KRAS, 2 hours)
C[C@@]1(O)COCCN(c2nc(OC[C@@]34CCCN3C[C@H](F)C4)nc3sc4c(-c5c(C6(F)CC6)c(Cl)cc6[nH]ncc56)nccc4c23)C1 [Ex-52, (6S)-4-(8-(6-chloro-5-(1-fluorocyclopropyl)-1H-indazol-4-yl)-2-(((2R,7aS)-2-fluorotetrahydro-1H-pyrrolizin-7a(5H)-yl)methoxy)pyrido[4′,3′-4,5]thi-eno[2,3-d]pyrimidin-4-yl)-6-methyl-1,4-oxazepan-6-ol]	68.7 nM	12.9 nM	11.9 nM	9.02 nM	4.05 nM	30.1 nM	–	–	–	37.3 nM	48.6 nM
C=C1CN2C[C@H](F)C[C@@]2(COc2nc(N3CCOC[C@@](C)(O)C3)c3c(n2)sc2c(-c4c(C5CC5)c(Cl)cc5[nH]ncc45)nccc23)C1 [Ex-223, (6S)-4-(8-(6-chloro-5-cyclopropyl-1H-indazol-4-yl)-2-(((2R,7aR)-2-fluoro-6-methylenetetra-hydro-1H-pyrrol-izin-7a(5H)-yl)methoxy)pyrido [4′,3′:4,5]thieno[2,3-d]pyrimidin-4-yl)-6-methyl-1,4-oxaze-pan-6-ol]	–	34.1 nM	24.5 nM	37.6 nM	9.27 nM	111 nM	63.8 nM	23.6 nM	42.9 nM	–	–
Cc1cc2[nH]ncc2c(-c2nccc3c2oc2nc(OC[C@]4(CN(C)C)CC4(F)F)nc(N4CCOC[C@@](C)(O)C4)c23)c1C(F)F [Ex-292, (6S)-4-(8-(5-(difluoromethyl)-6-methyl-1H-indazol-4-yl)-2-(((R)-1-((dimethylamino)methyl)-2,2-difluorocyclopropyl)meth-oxy)pyrido[4′,3′:4,5]furo[2,3-d]pyrimidin-4-yl)-6-methyl-1,4-oxazepan-6-ol]	2320 nM	134 nM	603 nM	308 nM	175 nM	76.9 nM	–	–	–	–	–
Cc1cc2[nH]ncc2c(-c2nccc3c2sc2nc(OC[C@@]45CCCN4C[C@H](F)C5)nc(N4CCOC[C@@](C)(O)C4)c23)c1-c1ccsc1 [Ex-139, (6S)-4-(2-(((2R, 7aS)-2-fluorotetra-hydro-1H-pyrrol-izin-7a(5H)-yl)meth-oxy)-8-(6-methyl-5-(thiophen-3-yl)-1H-indazol-4-yl)pyrido [4′,3′:4,5]thieno[2,3-d]pyrimidin-4-yl)-6-methyl-1,4-oxaze-pan-6-ol]	–	128 nM	319 nM	377 nM	129 nM	159 nM	663 nM	–	–	–	–

Further lines, with some results ahead:

IC50 (AsPC-1 cells; KRAS-G12D, 2 hours)	IC50 (KRAS-G12V)	IC50 (KRAS-WT)	IC50 (KRAS-G13D)	IC50 (KRAS-G12D)	IC50 [1]	IC50 (AsPC-1 cells; 2 hours compound incubation)	IC50 (SW620 cells; SW-620, 2 hours compound incubation)	IC50 (MKN-1 cells; 2 hours compound incubation)	SMILES	IC50 (SW620 cells; SW-620, KRAS-G12V, 2 hours)	IC50 (MKN-1 cells; amplified wild-type KRAS, 2 hours)
560 nM	65.3 nM	184 nM	172 nM	69.3 nM	362 nM	–	–	–	C/C=C(\C)c1c(C)cc2[nH]ncc2c1-c1nccc2c1sc1nc(OC[C@@]34CCCN3C[C@H](F)C4)nc(N3CCOC[C@@](C)(O)C3)c12 [Ex-65, (6S)-4-(8-(5-((E)-but-2-en-2-yl)-6-methyl-1H-indazol-4-yl)-2-(((2R,7aS)-2-fluorotetrahydro-1H-pyrrolizin-7a(5H)-yl)methoxy)pyrido[4′,3′:4,5]thi-eno[2,3-d]pyrimidin-4-yl)-6-methyl-1,4-oxazepan-6-ol]	–	–
–	476 nM	1200 nM	970 nM	643 nM	418 nM	18300 nM	–	–	Cc1cc2[nH]ncc2c(-c2nccc3c2sc2nc(OC[C@@]45CCCN4C[C@H](F)C5)nc(N4CCCC5(CNC(=O)C5)C4)c23)c1C(F)(F)F (stereo partly drawn) [Ex-193, 7-(2-(((2R,7aS)-2-fluoro-tetrahydro-1H-pyrrolizin-7a(5H)-yl)methoxy)-8-(6-methyl-5-(trifluorometh-yl)-1H-indazol-4-yl)pyrido [4′,3′:4,5]thieno[2,3-d]pyrimidin-4-yl)-2,7-diaza-spiro[4.5]decan-3-one]	–	–
–	753 nM	1860 nM	1250 nM	4950 nM	562 nM	3660 nM	–	–	Cc1cc2[nH]ncc2c(-c2nccc3c2sc2nc(OC[C@@]45CCCN4C[C@H](F)C5)nc(NC4CCOC4)c23)c1C(F)(F)F (stereo partly drawn) [Ex-188, 2-(((2R,7aS)-2-fluoro-tetrahydro-1H-pyrrolizin-7a(5H)-yl)methoxy)-8-(6-methyl-5-(trifluoromethyl)-1H-indazol-4-yl)-N-(tetra-hydrofuran-3-yl)pyrido [4′,3′:4,5]thieno[2,3-d] pyrimidin-4-amine]	–	–
–	5630 nM	11100 nM	3690 nM	11100 nM	423 nM	8560 nM	–	–	Cc1cc2[nH]ncc2c(-c2nccc3c2sc2nc(OC[C@@]45CCCN4C[C@H](F)C5)nc(NC4CCC4)c23)c1C(F)(F)F [Ex-191, N-cyclobutyl-2-(((2R,7aS)-2-fluorotetrahydro-1H-pyrrolizin-7a(5H)-yl)methoxy)-8-(6-methyl-5-(trifluoromethyl)-1H-indazol-4-yl)pyrido [4′,3′:4,5]thieno[2,3-d] pyrimidin-4-amine]	–	–
–	319 nM	1370 nM	842 nM	482 nM	146 nM	4580 nM	–	–	Cc1cc2[nH]ncc2c(-c2nccc3c2sc2nc(OC[C@@]45CCCN4C[C@H](F)C5)nc(NC4(CO)COC4)c23)c1C(F)(F)F [Ex-185, (3-((2-(((2R,7aS)-2-fluoro-tetrahydro-1H-pyrrolizin-7a(5H)-yl)methoxy)-8-(6-methyl-5-(trifluoromethyl)-1H-indazol-4-yl)pyrido [4′,3′:4,5]thieno[2,3-d]pyr-imidin-4-yl)amino)oxetan-3-yl)methanol]	–	–
